Test results from PMC11851430, “Workflow for E3 Ligase Ligand Validation for PROTAC Development” (ACS Chemical Biology, 2025).

Assays:
[1] = target: T1, ITK (Homo sapiens, UniProt Q08881); experiment: Western blot assay; format: cell-based; settings: Jurkat cells, 6 h
T1 construct: endogenous in cells; host or cells: Jurkat
T1 sequence (Q08881 1-620): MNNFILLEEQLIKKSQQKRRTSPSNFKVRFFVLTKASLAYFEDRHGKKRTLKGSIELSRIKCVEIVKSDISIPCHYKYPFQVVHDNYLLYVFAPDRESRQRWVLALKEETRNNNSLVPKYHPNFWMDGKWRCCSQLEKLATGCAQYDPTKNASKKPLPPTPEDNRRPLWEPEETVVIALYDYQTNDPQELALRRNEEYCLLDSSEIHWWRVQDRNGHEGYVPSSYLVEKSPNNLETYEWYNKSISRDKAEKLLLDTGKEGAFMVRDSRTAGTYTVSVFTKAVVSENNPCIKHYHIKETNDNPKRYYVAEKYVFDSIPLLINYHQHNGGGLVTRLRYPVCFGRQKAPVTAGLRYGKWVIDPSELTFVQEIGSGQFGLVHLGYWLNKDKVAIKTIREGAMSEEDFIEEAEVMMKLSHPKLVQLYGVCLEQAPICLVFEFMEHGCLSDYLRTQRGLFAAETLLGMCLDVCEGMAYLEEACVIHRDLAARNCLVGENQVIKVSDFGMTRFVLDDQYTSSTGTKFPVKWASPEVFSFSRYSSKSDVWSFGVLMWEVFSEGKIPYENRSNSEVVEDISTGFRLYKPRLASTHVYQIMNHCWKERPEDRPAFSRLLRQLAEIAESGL
Method: (§1) Two mL of Jurkat cells were seeded into 6 well plates (Greiner) at a density of 5·10 5 cells/mL.
(§2) The following day, cells were treated with compounds at according concentrations or DMSO for 6 hours and then lysed with 6 M Urea at 4 °C for 20 minutes. The lysates were centrifuged for 15 minutes at 16000 g and the supernatant was collected to perform the Western-Blot.
(§3) Protein quantification was performed using nanodrop One. The SDS samples were prepared […]
(§4) The samples were separated by a BIS-TRIS polyacrylamide gel polyacrylamide gel, 100 V for 1:45) followed by transfer to PVDF membranes (Millipore) at 350 mA for 140 minutes. The membranes were blocked using 5%wt/vol BSA (in TBS-T, 20 mM Tris-HCl, pH 7.5, 150 mM NaCl and 0.1% (vol/vol) Tween 20) at room temperature for 1 hour.
(§5) The blots were incubated with respective primary antibodies at 1:1000 dilution (Cell Signaling technologies: Aurora A (D3E4Q), ITK (2F12) and GAPDH (D4C6R)) at 4 °C overnight. The blots were washed with TBS-T thrice and incubated with 1:5000 dilution of horseradish peroxidase (HRP)-labelled respective secondary antibodies (Cell Signaling technologies, Anti- […]
(§6) The blots were washed with TBS-T thrice and then incubated with chemiluminescent HRP substrate (Bio-Rad) for 2 minutes. The blots were imaged and the signals were detected using the Amersham ImageQuant 800 (Cytiva).
(§7) Cell culture. Human MV4-11 ([…]) and human Jurkat ([…]) cells were cultured in RPMI- […]
(§8) °C in 5% CO2. Both media were supplemented with 10% FBS and 1% penicillin/streptomycin. […]

[2] = target: T2, AURKA (Homo sapiens, UniProt O14965); experiment: Western blot assay; format: cell-based; set-up: endogenous in cells; host or cells: Jurkat; settings: Jurkat cells, 6 h
T2 sequence (O14965 1-403): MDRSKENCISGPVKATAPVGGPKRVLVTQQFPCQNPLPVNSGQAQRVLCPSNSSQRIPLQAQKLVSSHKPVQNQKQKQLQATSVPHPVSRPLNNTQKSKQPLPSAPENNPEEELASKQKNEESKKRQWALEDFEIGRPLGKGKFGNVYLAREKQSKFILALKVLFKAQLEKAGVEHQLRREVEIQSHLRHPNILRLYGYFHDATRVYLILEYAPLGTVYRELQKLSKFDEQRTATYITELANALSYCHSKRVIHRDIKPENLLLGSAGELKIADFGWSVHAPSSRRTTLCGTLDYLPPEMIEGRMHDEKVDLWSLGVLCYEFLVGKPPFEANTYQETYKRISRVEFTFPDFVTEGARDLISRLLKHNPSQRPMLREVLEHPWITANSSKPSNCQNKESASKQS
Method: as §1, §2, §3, §4, §5, §6, §7, §8

[3] = target: T3, ABL1 (Homo sapiens, UniProt P00519); experiment: Kinobeads selectivity profiling; format: binding; settings: Jurkat lysate, dose series given in nM, read-out: Kd (apparent dissociation constant, corrected for protein depletion)
T3 construct: endogenous in cells; host or cells: Jurkat (Clone E6.1) cell lysate
Method: (§9) Excitation and emission filters […]
(§10) curve. […] Measurements were
(§11) Kinobeads selectivity profiling of PROTACs
(§12) (Multiplexion, Heidelberg, Germany).
(§13) The cell lysate was ultracentrifuged and diluted
(§14) NaF, 1 mM DTT, protease inhibitors and phosphatase inhibitors to a final concentration of 5 mg/ml as determined by Bradford assay. For selectivity profiling of compounds the cell lysate (2.5 mg of total proteins per pulldown) was pre-incubated with increasing compound […]
(§15) µM) for 45 min at 4 °C in an end-over-end shaker. Subsequently, lysates were incubated with Kinobeads epsilon (17 µL settled beads) for 30 min at 4 °C. To assess the degree of protein depletion from the lysates by Kinobeads, the flow-through of the DMSO control was recovered […]
(§16) for a pulldown of pulldown experiment where the lysate was incubated a second time with fresh Kinobeads. Beads were washed in 3 steps with buffer containing 0.4%, 0.2% and no NP40.
(§17) Bound proteins were reduced with 50 mM DTT in 8 M Urea, 40 mM Tris-HCl pH 7.4 for 30 min at room temperature. After alkylation with 55 mM chloroacetamide (CAA), the Urea concentration was reduced to 1 – 2 M and proteins were digested using trypsin. Acidified peptides were desalted and concentrated using SepPak tC18 µEluation plates (Waters).
(§18) Samples were frozen, dried by vacuum centrifugation and stored at -20 °C.
(§19) LC-MS2 analysis. Peptides were measured on a Dionex Ultimate3000 nano HPLC coupled online to an Orbitrap Fusion Lumos (Thermo Fisher Scientific) mass spectrometer.
(§20) Peptides were dissolved in 0.1% formic acid and delivered to a trap column (ReproSil-pur C18-AQ, 5 μm, Dr. Maisch, 20 mm × 75 μm, self-packed) at a flow rate of 5 μL/min in LC solvent A (0.1 % formic acid).4 After 10 min of loading, peptides were transferred to an analytical column (ReproSil Gold C18-AQ, 3 μm, Dr. Maisch, 400 mm × 75 μm, self-packed) and separated using […]
(§21) acetonitrile) in LC solvent A.
(§22) The Orbitrap Fusion Lumos was operated as follows: positive polarity; spray voltage 2.1 kV, […]
(§23) A full-scan (MS1) was recorded from 360 to 1300 m/z with a resolution of 60,000 in the Orbitrap in profile mode. The MS1 AGC target was set to 4e5 and the maxIT was set to 50 ms, RF lens value was set to 50%. Based on the full scans, precursors were targeted for the MS/MS scans […]
(§24) intensity exceeded 2.5e4. The dynamic exclusion was set to 30 sec and exclude isotopes was switched on. The MS2 quadrupole isolation window was set to 1.7 m/z. Peptide fragmentation occurred in the ion routing multipole (IRM) by HCD with a fixed collision energy mode, the […]

[4] = target: T4, AAK1 (Homo sapiens, UniProt Q2M2I8); experiment: Kinobeads selectivity profiling; format: binding; settings: Jurkat lysate, dose series given in nM, read-out: Kd (apparent dissociation constant, corrected for protein depletion)
T4 construct: endogenous in cells; host or cells: Jurkat (Clone E6.1) cell lysate
Method: as §9, §10, §11, §12, §13, §14, §15, §16, §17, §18, §19, §20, §21, §22, §23, §24

[5] = target: full-length AAK1 (Homo sapiens, UniProt Q2M2I8); experiment: NanoBRET target engagement assay, intact and permeabilized cells; settings: NanoBRET, mean of duplicates
Method: Compounds were pipetted at various concentrations using an Echo acoustic dispenser (Labcyte), immediately followed by Tracer K10 (Promega, Tracer DB ID: T000008) for AAK1 and Aurora A and VHL Tracer (Promega, Tracer DB ID: T000019) for VHL, at an optimum KD concentration chosen from TracerDB ( tracerdb.org), respectively.
To measure the BRET signal, the NanoBRET® NanoGlo Substrate (Promega:
N1573) was added as per the manufacturer’s protocol, and filtered luminescence was measured on a PHERAstar plate reader (BMG Labtech) equipped with a luminescence filter pair (450 nm BP filter (donor) and 610 nm LP filter (acceptor)). For NanoBRET® measurement in permeabilized cells, 25 nL of digitonin (0.05 μg/μL) was pipetted into each well using an
After incubation, the BRET signals were measured by a PHERAstar plate reader (BMG Labtech) following the same procedure as intact NanoBRET® measurement. Competitive displacement data were then normalized to controls and were plotted using GraphPad Prism 9 software employing a normalized 3-parameter curve fit with the following equation:

[6] = tested on: Jurkat cells; experiment: CellTiterGlo cell viability assay; format: cell-based, human; settings: Homo sapiens, 24 h, mean of triplicates, ^b/^c values estimated, read-out: IC50±sd/μM (cell viability)
Method: The effects of the compounds on cell viability was determined using the CellTiter-Glo® 2.0 Cell Viability Assay (Promega: G9241) following manufacturer’s protocol. Ten µL of Jurkat cells at […]
After equilibration, PROTACs were titrated at various concentrations using an Echo acoustic […]
volume of CellTiter-Glo® 2.0 reagent (10 µL) was added to each well and cells were incubated for 10 minutes at room temperature. Filtered luminescence was measured on a PHERAstar plate reader (BMG Labtech) and data was evaluated using GraphPad Prism 9 software employing a normalized curve it with the following equation: Y=Bottom + (Top-Bottom)/(1+10(LogEC50-X) *HillSlope).
Sample preparation. Jurkat cells (ATCC © HTB-22) were cultured in RPMI (Thermo: […]

[7] = AAK1 intact (IC50±sd)/μM, intact cells, ^a values estimated by extrapolation
[8] = AAK1 permeabilized (IC50±sd)/μM, permeabilized cells

Sequence of full-length AAK1 (Q2M2I8 whole entry): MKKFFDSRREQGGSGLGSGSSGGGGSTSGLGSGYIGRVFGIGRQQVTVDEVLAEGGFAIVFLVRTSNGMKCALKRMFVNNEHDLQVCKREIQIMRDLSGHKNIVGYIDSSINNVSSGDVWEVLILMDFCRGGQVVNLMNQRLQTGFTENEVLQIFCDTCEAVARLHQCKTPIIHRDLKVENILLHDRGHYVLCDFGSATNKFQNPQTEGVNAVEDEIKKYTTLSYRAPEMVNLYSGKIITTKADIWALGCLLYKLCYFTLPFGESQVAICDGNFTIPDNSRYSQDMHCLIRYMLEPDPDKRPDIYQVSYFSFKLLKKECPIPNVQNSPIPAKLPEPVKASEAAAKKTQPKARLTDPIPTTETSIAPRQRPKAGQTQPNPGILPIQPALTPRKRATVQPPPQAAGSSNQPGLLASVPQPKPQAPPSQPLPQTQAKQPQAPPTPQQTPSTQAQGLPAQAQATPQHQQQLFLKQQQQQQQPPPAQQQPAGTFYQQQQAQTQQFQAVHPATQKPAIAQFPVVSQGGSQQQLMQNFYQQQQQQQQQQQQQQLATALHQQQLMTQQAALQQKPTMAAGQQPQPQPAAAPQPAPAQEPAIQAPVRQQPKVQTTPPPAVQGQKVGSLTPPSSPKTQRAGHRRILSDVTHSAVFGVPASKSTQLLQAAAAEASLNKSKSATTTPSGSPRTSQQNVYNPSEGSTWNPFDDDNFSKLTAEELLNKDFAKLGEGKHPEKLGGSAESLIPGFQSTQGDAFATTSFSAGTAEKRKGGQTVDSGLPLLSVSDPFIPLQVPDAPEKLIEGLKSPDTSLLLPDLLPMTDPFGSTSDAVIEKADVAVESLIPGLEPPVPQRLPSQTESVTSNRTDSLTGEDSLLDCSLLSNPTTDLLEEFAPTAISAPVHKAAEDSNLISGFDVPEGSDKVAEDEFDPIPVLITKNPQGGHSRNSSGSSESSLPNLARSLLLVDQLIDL
T3 sequence (P00519 whole entry): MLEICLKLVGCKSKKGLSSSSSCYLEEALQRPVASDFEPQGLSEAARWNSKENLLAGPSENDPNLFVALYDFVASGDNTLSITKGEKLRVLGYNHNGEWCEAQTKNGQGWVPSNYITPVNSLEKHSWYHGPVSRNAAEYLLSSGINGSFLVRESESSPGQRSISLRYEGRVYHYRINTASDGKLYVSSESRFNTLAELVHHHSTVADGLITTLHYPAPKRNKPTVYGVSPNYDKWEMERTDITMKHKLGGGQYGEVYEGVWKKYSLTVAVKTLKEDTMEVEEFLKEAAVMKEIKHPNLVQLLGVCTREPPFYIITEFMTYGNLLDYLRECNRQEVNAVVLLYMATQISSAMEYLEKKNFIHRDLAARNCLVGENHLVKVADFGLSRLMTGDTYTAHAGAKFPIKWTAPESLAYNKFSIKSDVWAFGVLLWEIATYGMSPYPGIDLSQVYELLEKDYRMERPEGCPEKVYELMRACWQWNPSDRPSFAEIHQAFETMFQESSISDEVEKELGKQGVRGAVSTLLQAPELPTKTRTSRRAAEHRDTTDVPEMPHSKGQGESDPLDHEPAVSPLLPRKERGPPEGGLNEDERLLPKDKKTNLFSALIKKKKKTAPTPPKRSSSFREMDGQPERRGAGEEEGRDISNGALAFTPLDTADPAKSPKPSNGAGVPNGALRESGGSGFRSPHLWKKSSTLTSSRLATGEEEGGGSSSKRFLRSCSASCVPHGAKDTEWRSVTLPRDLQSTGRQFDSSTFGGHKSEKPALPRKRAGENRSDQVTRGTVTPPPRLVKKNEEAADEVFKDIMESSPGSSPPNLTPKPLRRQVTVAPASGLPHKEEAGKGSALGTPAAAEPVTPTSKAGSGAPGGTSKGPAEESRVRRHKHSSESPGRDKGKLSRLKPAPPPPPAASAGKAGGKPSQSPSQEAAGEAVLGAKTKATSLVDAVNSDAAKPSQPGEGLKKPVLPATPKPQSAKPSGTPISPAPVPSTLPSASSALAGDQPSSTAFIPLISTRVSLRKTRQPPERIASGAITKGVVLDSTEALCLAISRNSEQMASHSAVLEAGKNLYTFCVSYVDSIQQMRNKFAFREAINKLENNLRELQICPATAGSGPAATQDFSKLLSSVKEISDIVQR
T4 sequence (Q2M2I8 whole entry): as the sequence (Q2M2I8 whole entry) above

Structure (SMILES)	ITK protein levels (Western blot) [1]	AURKA protein levels (Western blot) [2]	Kd [3] [nM]	Kd [4] [nM]	IC50 [5, 7] [µM]	IC50 [5, 8] [µM]	IC50 [6] [µM]
COc1cc(C)c(Sc2cnc(NC(=O)c3ccc(N4CCN(CCCCCCCNC(=O)COc5cccc6c5C(=O)N(C5CCC(=O)NC5=O)C6=O)CC4)cc3)s2)cc1C(=O)N1CCN(C(C)=O)CC1 (centres unmarked) [BSJ-05–037, reference compound]	only weak degradation of ITK						
O=C(COc1cccc2c1C(=O)N(C1CCC(=O)NC1=O)C2=O)NCCOCCOCCNC(=O)C1(Cc2cccc(Nc3nccs3)n2)CCC(Oc2cccc(Cl)c2F)CC1 (centres unmarked) [JB300, reference compound]		strong degradation					
CC(C)(C)OC(=O)N1CCN(c2cc(Nc3cc(C4CC4)[nH]n3)nc(Nc3ccc(CC#N)cc3)n2)CC1 [compound 4]			2970	29.4	0.005	0.003	
NC(=O)c1ccccc1Nc1nc(Nc2ccc(N3CCNCC3)cc2)ncc1Cl [compound 6]			420	6.4	0.004 ± 0.001	0.004	0.7 ± 0.2
